Experimental data taken from the NIST ThermoML archive (doi:10.1016/j.jct.2013.09.007).
Numbers after ± are expanded uncertainties.

Test: activity coefficient (dimensionless); of the first substance listed, at infinite dilution; xn = mol fraction of the nth substance listed
Conditions: 101 kPa, Liquid, Chromatography, x1 = 0

Row | SMILES | activity coefficient (328.15 K) | activity coefficient (338.15 K) | activity coefficient (348.15 K) | activity coefficient (358.15 K) | activity coefficient (368.15 K) | activity coefficient (308.15 K) | activity coefficient (318.15 K)
1 | Cc1ccccc1C [1,2-dimethylbenzene] + CCCC[n+]1cccc(C)c1.N#C[N-]C#N | 2.47 ± 0.17 | 2.51 ± 0.17 | 2.58 ± 0.18 | 2.64 ± 0.18 | 2.71 ± 0.18 | – | –
2 | Cc1cccc(C)c1 [1,3-dimethylbenzene] + CCCC[n+]1cccc(C)c1.N#C[N-]C#N | 3.01 ± 0.2 | 3.06 ± 0.21 | 3.14 ± 0.21 | 3.2 ± 0.22 | 3.28 ± 0.22 | – | –
3 | Cc1ccc(C)cc1 [1,4-dimethylbenzene] + CCCC[n+]1cccc(C)c1.N#C[N-]C#N | 2.86 ± 0.19 | 2.92 ± 0.2 | 3.02 ± 0.21 | 3.08 ± 0.21 | 3.17 ± 0.22 | – | –
4 | C1COCCO1 [1,4-dioxane] + CCCC[n+]1cccc(C)c1.N#C[N-]C#N | – | 1.01 ± 0.06 | 1.05 ± 0.07 | 1.08 ± 0.07 | 1.11 ± 0.07 | – | –
5 | C=CCCCCCCCC [1-decene] + CCCC[n+]1cccc(C)c1.N#C[N-]C#N | 93.8 ± 6.4 | 88.4 ± 6.1 | 83.2 ± 5.7 | 78.1 ± 5.4 | 73.9 ± 5.1 | 109 ± 7 | 101 ± 7
6 | C=CCCCCC [1-heptene] + CCCC[n+]1cccc(C)c1.N#C[N-]C#N | 29.7 ± 2 | 28.3 ± 1.9 | 27 ± 1.8 | 25.9 ± 1.8 | 24.8 ± 1.7 | 33.1 ± 2.3 | 31.2 ± 2.1
7 | C#CCCCCC [1-heptyne] + CCCC[n+]1cccc(C)c1.N#C[N-]C#N | 6.38 ± 0.43 | 6.48 ± 0.44 | 6.58 ± 0.45 | 6.67 ± 0.45 | 6.78 ± 0.46 | 6.16 ± 0.42 | 6.27 ± 0.43
8 | C#CCCCC [1-hexyne] + CCCC[n+]1cccc(C)c1.N#C[N-]C#N | 4.35 ± 0.3 | 4.45 ± 0.3 | 4.55 ± 0.31 | 4.62 ± 0.31 | 4.72 ± 0.32 | 4.13 ± 0.28 | 4.25 ± 0.29
9 | CCC[N+](=O)[O-] [1-nitropropane] + CCCC[n+]1cccc(C)c1.N#C[N-]C#N | – | 1.13 ± 0.07 | 1.14 ± 0.07 | 1.15 ± 0.07 | 1.15 ± 0.07 | – | –
10 | C#CCCCCCC [1-octyne] + CCCC[n+]1cccc(C)c1.N#C[N-]C#N | 9.42 ± 0.64 | 9.52 ± 0.65 | 9.6 ± 0.65 | 9.68 ± 0.66 | 9.75 ± 0.67 | 9.22 ± 0.63 | 9.32 ± 0.64
11 | C=CCCC [1-pentene] + CCCC[n+]1cccc(C)c1.N#C[N-]C#N | 14.1 ± 1 | 13.7 ± 0.9 | 13.1 ± 0.9 | 12.6 ± 0.9 | 12.2 ± 0.8 | 15.3 ± 1 | 14.7 ± 1
12 | C#CCCC [1-pentyne] + CCCC[n+]1cccc(C)c1.N#C[N-]C#N | 3.05 ± 0.21 | 3.14 ± 0.21 | 3.21 ± 0.22 | 3.28 ± 0.22 | 3.35 ± 0.23 | 2.9 ± 0.2 | 2.97 ± 0.2
13 | CC(C)CC(C)(C)C [2,2,4-trimethylpentane] + CCCC[n+]1cccc(C)c1.N#C[N-]C#N | 85.8 ± 5.9 | 78.3 ± 5.4 | 72.6 ± 5 | 67 ± 4.6 | 61.7 ± 4.2 | 104 ± 7 | 93.3 ± 6.4
14 | CCC(C)(C)C [2,2-dimethylbutane] + CCCC[n+]1cccc(C)c1.N#C[N-]C#N | 47.4 ± 3.2 | 42.9 ± 2.9 | 39.4 ± 2.7 | 36.4 ± 2.5 | 33.6 ± 2.3 | 57.3 ± 3.9 | 52 ± 3.6
15 | CCOC(C)(C)C [2-ethoxy-2-methylpropane] + CCCC[n+]1cccc(C)c1.N#C[N-]C#N | 17 ± 1.2 | 16.7 ± 1.1 | 16.3 ± 1.1 | 15.9 ± 1.1 | 15.6 ± 1.1 | 18 ± 1.2 | 17.5 ± 1.2
16 | CCCCC(C)=O [2-hexanone] + CCCC[n+]1cccc(C)c1.N#C[N-]C#N | 2.44 ± 0.17 | 2.48 ± 0.17 | 2.54 ± 0.17 | 2.59 ± 0.18 | 2.63 ± 0.18 | – | –
17 | CCC(C)(C)OC [2-methoxy-2-methylbutane] + CCCC[n+]1cccc(C)c1.N#C[N-]C#N | 9.59 ± 0.65 | 9.51 ± 0.65 | 9.44 ± 0.64 | 9.35 ± 0.64 | 9.27 ± 0.63 | 9.8 ± 0.67 | 9.71 ± 0.66
18 | COC(C)(C)C [2-methoxy-2-methylpropane] + CCCC[n+]1cccc(C)c1.N#C[N-]C#N | 6.78 ± 0.46 | 6.78 ± 0.46 | 6.79 ± 0.46 | 6.8 ± 0.46 | 6.8 ± 0.46 | 6.76 ± 0.46 | 6.77 ± 0.46

Row | SMILES | activity coefficient (328.15 K) | activity coefficient (338.15 K) | activity coefficient (348.15 K) | activity coefficient (358.15 K) | activity coefficient (368.15 K) | activity coefficient (308.15 K) | activity coefficient (318.15 K)
19 | CCCC(=O)CC [3-hexanone] + CCCC[n+]1cccc(C)c1.N#C[N-]C#N | – | 2.77 ± 0.19 | 2.82 ± 0.19 | 2.87 ± 0.2 | 2.89 ± 0.2 | – | –
20 | CCC(C)CC [3-methylpentane] + CCCC[n+]1cccc(C)c1.N#C[N-]C#N | 43.1 ± 3 | 39.8 ± 2.7 | 36.9 ± 2.5 | 34.7 ± 2.4 | 32.4 ± 2.2 | 50.9 ± 3.5 | 47 ± 3.2
21 | C=C(C)c1ccccc1 [(1-methylethenyl)benzene] + CCCC[n+]1cccc(C)c1.N#C[N-]C#N | 2.1 ± 0.14 | 2.21 ± 0.15 | 2.33 ± 0.16 | 2.44 ± 0.17 | 2.55 ± 0.17 | – | –
22 | CC(C)=O [acetone] + CCCC[n+]1cccc(C)c1.N#C[N-]C#N | 0.946 ± 0.06 | 0.968 ± 0.061 | 0.999 ± 0.062 | 1.03 ± 0.06 | 1.04 ± 0.07 | – | –
23 | CC#N [acetonitrile] + CCCC[n+]1cccc(C)c1.N#C[N-]C#N | – | 0.736 ± 0.049 | 0.748 ± 0.049 | 0.76 ± 0.05 | 0.764 ± 0.05 | – | –
24 | c1ccccc1 [benzene] + CCCC[n+]1cccc(C)c1.N#C[N-]C#N | 1.37 ± 0.09 | 1.4 ± 0.09 | 1.43 ± 0.09 | 1.47 ± 0.1 | 1.5 ± 0.1 | – | –
25 | CCCCO [butan-1-ol] + CCCC[n+]1cccc(C)c1.N#C[N-]C#N | – | 0.88 ± 0.056 | 0.855 ± 0.055 | 0.84 ± 0.054 | 0.814 ± 0.053 | – | –
26 | C1CCCCCC1 [cycloheptane] + CCCC[n+]1cccc(C)c1.N#C[N-]C#N | 23.6 ± 1.6 | 22.1 ± 1.5 | 20.7 ± 1.4 | 19.5 ± 1.3 | 18.5 ± 1.3 | 27.3 ± 1.9 | 25.2 ± 1.7
27 | C1CCCCC1 [cyclohexane] + CCCC[n+]1cccc(C)c1.N#C[N-]C#N | 19.8 ± 1.4 | 18.5 ± 1.3 | 17.4 ± 1.2 | 16.5 ± 1.1 | 15.6 ± 1.1 | 23 ± 1.6 | 21.2 ± 1.4
28 | O=C1CCCCC1 [cyclohexanone] + CCCC[n+]1cccc(C)c1.N#C[N-]C#N | – | 0.928 ± 0.059 | 0.96 ± 0.06 | 0.988 ± 0.062 | 1.01 ± 0.06 | – | –
29 | C1=CCCCC1 [cyclohexene] + CCCC[n+]1cccc(C)c1.N#C[N-]C#N | 8.55 ± 0.58 | 8.27 ± 0.56 | 7.99 ± 0.54 | 7.76 ± 0.53 | 7.54 ± 0.51 | 9.2 ± 0.63 | 8.87 ± 0.61
30 | C1CCCCCCC1 [cyclooctane] + CCCC[n+]1cccc(C)c1.N#C[N-]C#N | 29.7 ± 2 | 27.8 ± 1.9 | 25.8 ± 1.8 | 24.2 ± 1.7 | 22.7 ± 1.6 | 35.1 ± 2.4 | 32 ± 2.2
31 | C1CCCC1 [cyclopentane] + CCCC[n+]1cccc(C)c1.N#C[N-]C#N | 13.4 ± 0.9 | 12.6 ± 0.9 | 11.9 ± 0.8 | 11.3 ± 0.8 | 10.9 ± 0.7 | 15.1 ± 1 | 14.2 ± 1
32 | CCCCCCCCCC [decane] + CCCC[n+]1cccc(C)c1.N#C[N-]C#N | 219 ± 15 | 198 ± 14 | 179 ± 12 | 163 ± 11 | 149 ± 10 | 275 ± 19 | 244 ± 17
33 | CCOCC [diethyl ether] + CCCC[n+]1cccc(C)c1.N#C[N-]C#N | 6.29 ± 0.43 | 6.26 ± 0.43 | 6.22 ± 0.42 | 6.19 ± 0.42 | 6.15 ± 0.42 | 6.37 ± 0.43 | 6.33 ± 0.43
34 | CCCOCCC [dipropyl ether] + CCCC[n+]1cccc(C)c1.N#C[N-]C#N | 17.2 ± 1.2 | 16.6 ± 1.1 | 16.3 ± 1.1 | 15.6 ± 1.1 | 15.2 ± 1 | 18.3 ± 1.3 | 17.7 ± 1.2
35 | CCO [ethanol] + CCCC[n+]1cccc(C)c1.N#C[N-]C#N | – | 0.549 ± 0.04 | 0.545 ± 0.04 | 0.541 ± 0.04 | 0.537 ± 0.039 | – | –
36 | CCc1ccccc1 [ethylbenzene] + CCCC[n+]1cccc(C)c1.N#C[N-]C#N | 3.21 ± 0.22 | 3.26 ± 0.22 | 3.32 ± 0.23 | 3.35 ± 0.23 | 3.41 ± 0.23 | – | –
